Columns and labels:
[1] = molecular target: Cyclin-K/Cyclin-dependent kinase 12 (Human, UniProt Q9NYV4); test: CDK12/CycK High ATP Kinase Assay
Description: For the assay 50 nanoL of a 100 fold concentrated solution of the test compound in DMSO was pipetted into either a black low volume 384 well microtiter plate or a black 1536 well microtiter plate (both Greiner Bio-One, Frickenhausen, Germany), 2 microL of a solution of CDK12/CycK in aqueous assay buffer [25 millimol/L HEPES pH 7.5, 20 millimol/L MgCl2, 5 millimol/L β-glycerophosphate, 2 millimol/L EGTA, 1.0 millimol/L dithiothreitol, 0.01% (v/v) Nonidet-P40 (Sigma), 0.01% (w/v) bovine serum albumin] were added and the mixture was incubated for 15 min at 22° C. to allow pre-binding of the test compounds to the enzyme before the start of the kinase reaction. Then the kinase reaction was started by the addition of 3 microL of a solution ATP (3.33 millimol/L=>final conc. in the 5 microL assay volume is 2 millimol/L) and substrate (1.67 micromol/L=>final conc. in the 5 microL assay volume is 1 micromol/L) in assay buffer and the resulting mixture was incubated for a reaction time of 60 min at 22° C. The concentration of CDK12/CycK was adjusted depending of the activity of the enzyme lot and was chosen appropriate to have the assay in the linear range, typical concentrations were about 0.75 nanomol/L. The reaction was stopped by the addition of 3 microL of a solution of TR-FRET detection reagents (125 nanomol/L streptavidine-XL665 [Cisbio Bioassays, Codolet, France] and 0.67 nanomol/L anti-Phospho-c-Myc (Ser 62) (E1J4K)-antibody from Cell Signalling [#13748] and 2 nanomol/L LANCE EU-W1024 labeled anti-rabbit IgG antibody [Perkin-Elmer, product no. 0083]) in an aqueous EDTA-solution (133 millimol/L EDTA, 0.27% (w/v) bovine serum albumin in 66.7 millimol/L HEPES pH 7.5).The resulting mixture was incubated 1 h at 22° C. to allow the formation of complex between the phosphorylated biotinylated peptide and the detection reagents. Subsequently the amount of phosphorylated substrate was evaluated by measurement of the resonance energy transfer from the Eu-chelate to the streptavidine-XL. Therefore, the fluorescence emissions at 620 nm and 665 nm after excitation at 350 nm was measured in a TR-FRET reader, e.g. a Pherastar FS (BMG Labtechnologies, Offenburg, Germany) or a Viewlux (Perkin-Elmer).

[2] = molecular target: Cyclin-dependent kinase 2/G1/S-specific cyclin-E1 (Homo sapiens, UniProt P24941); test: CDK2/CycE Kinase Assay
Experimental: (§1) For the assay 50 nanoL of a 100 fold concentrated solution of the test compound in DMSO was pipetted into a black low volume 384 well microtiter plate or a black 1536 well microtiter plate (both Greiner Bio-One, Frickenhausen, Germany), 2 microL of a solution of CDK2/CycE in aqueous assay buffer [50 millimol/L Tris/HCl PH 8.0, 10 millimol/L MgCl2, 1.0 millimol/L dithiothreitol, 0.1 millimol/L sodium ortho-vanadate, 0.01% (v/v) Nonidet-P40 (Sigma)] were added and the mixture was incubated for 15 min at 22° C. to allow pre-binding of the test compounds to the enzyme before the start of the kinase reaction. Then the kinase reaction was started by the addition of 3 microL of a solution of adenosine-tri-phosphate (ATP, 3.33 millimol/L=>final conc. in the 5 microL assay volume is 2 millimol/L) and substrate (1.25 micromol/L=>final conc. in the 5 microL assay volume is 0.75 micromol/L) in assay buffer and the resulting mixture was incubated for a reaction time of 25 min at 22° C. The concentration of CDK2/CycE was adjusted depending of the activity of the enzyme lot and was chosen appropriate to have the assay in the linear range, typical concentrations were in the range of 10 ng/ml. The reaction was stopped by the addition of 3 microL of a solution of TR-FRET detection reagents (0.333 micromol/L streptavidine-XL665 [Cisbio Bioassays, Codolet, France] and 1.67 nanomol/L anti-RB (pSer807/pSer811)-antibody from BD Pharmingen [#558389] and 2 nanomol/L LANCE EU-W1024 labeled anti-mouse IgG antibody [Perkin-Elmer, product no. AD0077, as an alternative a Terbium-cryptate-labeled anti-mouse IgG antibody from Cisbio Bioassays can be used]) in an aqueous EDTA-solution (167 millimol/L EDTA, 0.2% (w/v) bovine serum albumin in 100 millimol/L HEPES pH 7.5).The resulting mixture was incubated 1 h at 22° C. to allow the formation of complex between the phosphorylated biotinylated peptide and the detection reagents. Subsequently the amount of phosphorylated substrate was evaluated by measurement of the resonance energy transfer from the Eu-chelate to the streptavidine-XL. Therefore, the fluorescence emissions at 620 nm and 665 nm after excitation at 350 nm was measured in a TR-FRET reader, e.g. a Pherastar (BMG Labtechnologies, Offenburg, Germany) or a Viewlux (Perkin-Elmer).

[3] = molecular target: Cyclin-T1/Cyclin-dependent kinase 9 (Homo sapiens, UniProt P50750); test: CDK9/CycT1 High ATP Kinase Assay
Cyclin-T1/Cyclin-dependent kinase 9, sequence (O60563 whole entry): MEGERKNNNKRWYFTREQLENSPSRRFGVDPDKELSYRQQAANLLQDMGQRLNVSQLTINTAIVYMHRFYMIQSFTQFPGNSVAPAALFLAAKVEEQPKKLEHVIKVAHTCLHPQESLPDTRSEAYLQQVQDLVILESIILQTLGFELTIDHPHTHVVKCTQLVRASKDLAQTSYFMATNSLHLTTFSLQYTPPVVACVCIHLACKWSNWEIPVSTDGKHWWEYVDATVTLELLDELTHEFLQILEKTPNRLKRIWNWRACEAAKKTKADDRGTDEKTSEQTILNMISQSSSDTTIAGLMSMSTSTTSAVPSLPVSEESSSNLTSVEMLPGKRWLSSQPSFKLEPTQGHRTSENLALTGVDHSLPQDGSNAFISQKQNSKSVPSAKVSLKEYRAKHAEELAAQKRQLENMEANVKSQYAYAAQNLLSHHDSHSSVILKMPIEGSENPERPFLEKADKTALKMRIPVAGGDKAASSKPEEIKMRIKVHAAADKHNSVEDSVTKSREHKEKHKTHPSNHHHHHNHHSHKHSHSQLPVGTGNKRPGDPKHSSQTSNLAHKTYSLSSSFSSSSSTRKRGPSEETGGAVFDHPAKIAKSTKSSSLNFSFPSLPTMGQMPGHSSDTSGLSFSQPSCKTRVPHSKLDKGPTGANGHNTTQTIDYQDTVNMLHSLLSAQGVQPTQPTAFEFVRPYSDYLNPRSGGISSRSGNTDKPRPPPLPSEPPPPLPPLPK
Cyclin-T1/Cyclin-dependent kinase 9, sequence (P50750 whole entry): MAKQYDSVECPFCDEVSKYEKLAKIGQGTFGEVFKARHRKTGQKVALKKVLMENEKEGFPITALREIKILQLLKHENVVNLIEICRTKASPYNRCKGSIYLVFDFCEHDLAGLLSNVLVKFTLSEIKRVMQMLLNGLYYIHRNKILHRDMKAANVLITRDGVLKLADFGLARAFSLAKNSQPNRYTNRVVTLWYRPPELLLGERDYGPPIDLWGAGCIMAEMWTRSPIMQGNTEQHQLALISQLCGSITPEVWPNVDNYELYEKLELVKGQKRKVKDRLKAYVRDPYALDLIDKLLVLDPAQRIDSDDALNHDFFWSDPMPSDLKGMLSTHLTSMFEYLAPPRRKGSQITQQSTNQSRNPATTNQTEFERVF
Experimental: as §1, with “into either” for “into”, “CDK9/CycT1” for “CDK2/CycE”, “3.3” for “3.33”, “0.5 microg/ml. […]” for “10 ng/ml. The reaction was stopped by the addition of 3 microL of a solution of TR-FRET detection reagents (0.333 micromol/L streptavidine-XL665 [Cisbio Bioassays, Codolet, France] and 1.67 nanomol/L anti-RB (pSer807/pSer811)-antibody from BD Pharmingen [#558389] and 2 nanomol/L LANCE EU-W1024 labeled anti-mouse IgG antibody [Perkin-Elmer, product no. AD0077, as an alternative a Terbium-cryptate-labeled anti-mouse IgG antibody from Cisbio Bioassays can be used]) in an aqueous EDTA-solution (167 millimol/L EDTA, 0.2% (w/v) bovine serum albumin in 100 millimol/L HEPES pH 7.5).The resulting mixture was incubated 1 h at 22° C. to allow the formation of complex between the phosphorylated biotinylated peptide and the detection reagents.”

Cyclin-K/Cyclin-dependent kinase 12, sequence (O75909 whole entry): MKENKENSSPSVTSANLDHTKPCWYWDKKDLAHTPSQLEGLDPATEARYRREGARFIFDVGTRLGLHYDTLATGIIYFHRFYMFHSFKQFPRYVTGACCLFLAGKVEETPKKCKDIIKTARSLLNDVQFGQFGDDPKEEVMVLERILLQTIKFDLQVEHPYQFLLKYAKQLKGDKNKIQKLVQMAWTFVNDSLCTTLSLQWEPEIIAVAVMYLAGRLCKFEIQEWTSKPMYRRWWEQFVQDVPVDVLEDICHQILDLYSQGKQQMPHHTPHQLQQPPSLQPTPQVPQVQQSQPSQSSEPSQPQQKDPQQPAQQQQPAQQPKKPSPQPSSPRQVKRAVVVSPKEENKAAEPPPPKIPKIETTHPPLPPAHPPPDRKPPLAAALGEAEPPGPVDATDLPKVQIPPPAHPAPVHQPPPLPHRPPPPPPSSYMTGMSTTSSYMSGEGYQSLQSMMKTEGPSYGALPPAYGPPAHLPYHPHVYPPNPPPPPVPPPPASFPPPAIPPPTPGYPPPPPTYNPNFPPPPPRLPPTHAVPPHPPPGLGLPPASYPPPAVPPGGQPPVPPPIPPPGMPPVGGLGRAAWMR
Cyclin-K/Cyclin-dependent kinase 12, sequence (Q9NYV4 whole entry): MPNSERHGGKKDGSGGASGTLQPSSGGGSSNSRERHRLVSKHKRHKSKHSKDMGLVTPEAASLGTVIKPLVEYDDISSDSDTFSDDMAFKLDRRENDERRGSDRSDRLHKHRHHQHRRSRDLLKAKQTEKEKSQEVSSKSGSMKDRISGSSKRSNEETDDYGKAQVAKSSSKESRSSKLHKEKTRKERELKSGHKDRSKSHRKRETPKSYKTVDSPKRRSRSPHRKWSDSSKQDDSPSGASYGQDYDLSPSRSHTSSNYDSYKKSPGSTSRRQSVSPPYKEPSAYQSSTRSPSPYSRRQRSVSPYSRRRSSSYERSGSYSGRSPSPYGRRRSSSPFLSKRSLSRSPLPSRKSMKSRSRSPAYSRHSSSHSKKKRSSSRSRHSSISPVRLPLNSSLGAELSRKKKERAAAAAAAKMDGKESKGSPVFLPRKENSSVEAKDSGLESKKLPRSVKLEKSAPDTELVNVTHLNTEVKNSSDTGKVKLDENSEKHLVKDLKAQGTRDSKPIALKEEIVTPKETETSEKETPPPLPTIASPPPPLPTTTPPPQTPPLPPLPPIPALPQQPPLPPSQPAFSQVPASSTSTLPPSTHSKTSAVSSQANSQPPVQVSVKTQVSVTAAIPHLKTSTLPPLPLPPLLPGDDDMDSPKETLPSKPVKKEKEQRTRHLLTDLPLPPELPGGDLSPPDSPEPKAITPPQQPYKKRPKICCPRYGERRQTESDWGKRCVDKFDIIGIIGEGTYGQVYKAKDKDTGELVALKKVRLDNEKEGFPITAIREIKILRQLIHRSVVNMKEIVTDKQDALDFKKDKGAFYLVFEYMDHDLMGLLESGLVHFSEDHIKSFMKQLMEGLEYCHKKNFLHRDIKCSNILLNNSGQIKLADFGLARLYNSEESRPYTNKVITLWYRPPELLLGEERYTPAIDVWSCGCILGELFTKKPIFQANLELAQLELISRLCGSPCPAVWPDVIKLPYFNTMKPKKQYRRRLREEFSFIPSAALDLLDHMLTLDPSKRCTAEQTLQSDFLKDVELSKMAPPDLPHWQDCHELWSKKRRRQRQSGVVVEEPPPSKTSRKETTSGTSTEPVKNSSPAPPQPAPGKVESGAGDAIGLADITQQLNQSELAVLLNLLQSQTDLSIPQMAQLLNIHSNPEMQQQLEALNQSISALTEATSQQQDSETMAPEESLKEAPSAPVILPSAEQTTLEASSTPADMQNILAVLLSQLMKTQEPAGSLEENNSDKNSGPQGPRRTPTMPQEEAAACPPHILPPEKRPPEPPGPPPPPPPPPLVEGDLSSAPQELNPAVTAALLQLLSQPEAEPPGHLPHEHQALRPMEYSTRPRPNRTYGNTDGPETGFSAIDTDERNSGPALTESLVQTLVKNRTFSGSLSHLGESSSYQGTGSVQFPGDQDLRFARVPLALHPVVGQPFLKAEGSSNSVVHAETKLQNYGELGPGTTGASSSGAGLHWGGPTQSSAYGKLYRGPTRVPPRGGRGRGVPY

| Structure (SMILES) | IC50 [1] [nM] | IC50 [2] [nM] | IC50 [3] [nM] |
| --- | --- | --- | --- |
| COc1ccc(-c2nnc(CNc3nc(N4CCOCC4)nn4c(C(F)(F)F)cnc34)[nH]2)cn1 [US20250066370, Example 18] | 41.6 | > 5710 | 340 |
| FC(F)(F)c1ccc(-c2nnc(CNc3nc(N4CCOCC4)nc4c(C(F)(F)F)cnn34)[nH]2)cn1 [US20250066370, Example 16] | 79.1 | 4050 |  |
| FC(F)(F)Oc1ccc(-c2nnc(CNc3nc(N4CCOCC4)nc4c(C(F)(F)F)cnn34)[nH]2)cn1 [US20250066370, Example 17] | 5.96 | 6720 |  |
| COc1ccc(-c2cnc(CNc3nc(N4CCOCC4)nn4c(C(F)(F)F)cnc34)[nH]2)cc1 [US20250066370, Example 13] | 12.3 | 16300 | 2780 |
| FC(F)(F)c1ccc(-c2cnc(CNc3nc(N4CCOCC4)nc4c(C(F)(F)F)cnn34)[nH]2)cn1 [US20250066370, Example 24] | 15.1 | 7820 | 3560 |
